{"source": "patent US20230390222A1", "about": "“Amyloid-Binding Peptoids with Broad-Spectrum Antiviral, Antibacterial, and Antifungal Activity” (The Board of Trustees of the Leland Stanford Junior …, priority 2021, published 2023)", "key": {"[1]": {"assay": "ThT fibril formation assay comparing kinetics of Aβ40 wild-type and Aβ40-E22Δ (Osaka) mutant", "details": "standard ThT fibril formation conditions, peptide alone", "procedure": "FIG. 5 depicts a ThT fibril formation assay comparing fibril formation kinetics of Aβ40 wild-type and the Aβ40-E22Δ (Osaka) FAD mutant.\nFIG. 5 illustrates exemplary data of preliminary experiments in which Aβ40-E22Δ was synthesized and subjected to standard conditions utilized in ThT fibril formation assays. FIG. 5 illustrates that the deletion of the E22 residue leads to a pronounced acceleration of fibril formation, which dropped from 196±7 min with Aβ40-WT to 38±1 min with Aβ40-E22Δ. The Aβ40-E22Δ mutant is much more amyloidogenic than Aβ40-WT, which may complicate efforts to block its amyloidogenicity."}, "Aβ40": {"biological_target": "T1, Aβ40 (Homo sapiens, UniProt P05067)", "T1 construct": "The 40 AA long isoform, Aβ40, is formed predominantly", "T1 sequence (P05067 672-711 limits assumed)": "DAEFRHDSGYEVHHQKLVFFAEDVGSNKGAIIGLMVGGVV", "assay": "Thioflavin T (ThT) fluorescence assay of Aβ40 fibril formation in presence of LL-37 or peptoid", "format": "biochemical"}, "HSV-1": {"system": "HSV-1", "assay": "Antiviral activity (inactivation) against HSV-1", "format": "cell-based, Herpes Simplex Virus-1"}, "S. aureus": {"system": "S. aureus", "assay": "Activity against S. aureus", "format": "cell-based"}, "C. albicans": {"system": "C. albicans", "assay": "Activity against C. albicans", "format": "cell-based"}, "M tuberculosis": {"system": "M tuberculosis", "assay": "Activity against M tuberculosis", "format": "cell-based"}, "P. gingivalis": {"system": "P. gingivalis", "assay": "Antimicrobial activity against P. gingivalis", "format": "cell-based, Porphyromonas gingivalis"}, "P. aeruginosa": {"system": "P. aeruginosa", "assay": "Activity against P. aeruginosa", "format": "cell-based"}}, "note": "“Also recorded” adds a separate entry of the source.", "data": [{"substance": "Aβ40-WT: 40 amino acid long wild-type isoform of Amyloid β", "values": [{"measurement": "fibril formation (time) in ThT assay", "setting": "[1]", "result": "196 ± 7", "unit": "min"}]}, {"substance": "Aβ40-E22Δ: FAD-causing Aβ40 variant with deletion of E22, known as the Osaka mutation (DAEFRHDSGYEVHHQKLVFFADVGSNKGAIIGLMVGGVV; Amyloid-beta protein 40; UniProt P05067 672-711, looked up, variant E22*)", "values": [{"measurement": "fibril formation (time) in ThT assay", "setting": "[1]", "result": "38 ± 1", "unit": "min"}]}, {"substance": "LL-37: peptide produced by the human innate immune system, ~4500 g/mol, 37 amino acids", "values": [{"measurement": "Aβ fibril formation (ThT fluorescence)", "setting": "Aβ40; 1:1 equimolar ratio to wildtype Aβ40", "result": "totally prevented from forming Aβ fibrils; also recorded: blocks fibril formation"}, {"measurement": "kinetics of Aβ fibril formation (ThT fluorescence)", "setting": "Aβ40; lower relative (sub-stoichiometric) molar amounts vs Aβ40", "result": "slow the kinetics of fibril formation; also recorded: slows it down in a dose-dependent manner"}, {"measurement": "final fluorescence at endpoint in ThT fibril formation assay", "setting": "Aβ40; sub-stoichiometric LL-37 addition", "result": "higher fluorescence output at endpoint"}]}, {"substance": "H-(NLys-Nspe-Nspe)4-NH2 [Peptoid 1]", "values": [{"measurement": "concentration with antiviral activity / totally inactivating HSV-1 virus", "setting": "HSV-1", "result": 4, "unit": "µg/mL"}, {"measurement": "activity against pathogen", "setting": "S. aureus", "result": "active"}, {"measurement": "activity against pathogen", "setting": "C. albicans", "result": "active"}, {"measurement": "activity against pathogen", "setting": "M tuberculosis", "result": "active"}, {"measurement": "concentration with antimicrobial activity / killing P. gingivalis bacteria", "setting": "P. gingivalis", "result": 4, "unit": "µg/mL"}, {"measurement": "anti-amyloid activity (prevention of Aβ amyloid formation)", "setting": "Aβ40; FIG. 1C, 20 μM peptide/peptoid concentrations", "result": "shares the same anti-amyloid activity"}, {"measurement": "activity against pathogen", "setting": "P. aeruginosa", "result": "active"}]}]}
